For series [1], the target named is T1, Glycogen synthase kinase-3 beta (Homo sapiens, UniProt P49841). The conditions noted are these: dose 400.0 nM, time 4.5 hrs.
Target sequence in this assay (P49841 whole entry, looked up): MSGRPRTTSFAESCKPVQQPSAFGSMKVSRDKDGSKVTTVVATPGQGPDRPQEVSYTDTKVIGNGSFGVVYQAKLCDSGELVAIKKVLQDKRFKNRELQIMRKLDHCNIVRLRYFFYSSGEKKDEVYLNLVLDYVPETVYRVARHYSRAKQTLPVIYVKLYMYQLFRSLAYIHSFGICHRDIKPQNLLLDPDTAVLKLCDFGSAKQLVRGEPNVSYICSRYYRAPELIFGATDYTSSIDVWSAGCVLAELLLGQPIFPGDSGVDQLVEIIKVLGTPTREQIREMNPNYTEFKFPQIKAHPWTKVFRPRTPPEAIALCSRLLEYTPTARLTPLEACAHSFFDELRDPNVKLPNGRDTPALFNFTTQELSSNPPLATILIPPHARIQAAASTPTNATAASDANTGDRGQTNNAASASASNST
Series [2] deals with Cyclin-G-associated kinase (Homo sapiens) (UniProt O14976). In words: Inhibition of human recombinant GAK by Lanthascreen assay. The conditions noted are these: concentration not given here.
Series [3] deals with Vascular endothelial growth factor receptor 3 (Homo sapiens) (UniProt P35916). In words: Inhibition of human recombinant FLT4 in presence of ATP by Z-lyte kinase assay. The conditions noted are these: concentration not given here.
In series [4] the target is Ribosomal protein S6 kinase alpha-1 (Homo sapiens) (UniProt Q15418). The series is described as follows: Inhibition of human recombinant RSK1 in presence of ATP by Z-lyte kinase assay. The following applies: concentration not given here.
Series [5] deals with T1, Glycogen synthase kinase-3 beta. In words: Inhibition of human GSK-3beta assessed as decrease in relative fluorescence unit measured upto 60 mins by kinase-profiling analysis. The conditions noted are these: time min <=60, TDE = time-dependent effect.
Target sequence in this assay (P49841 whole entry, looked up): as above
The target in series [6] is Dual specificity mitogen-activated protein kinase kinase 2 (Homo sapiens) (UniProt P36507). In words: Inhibition of human recombinant MAP2K2 by Lanthascreen assay. The following applies: concentration not given here. In general terms: In TR-FRET formats the signal depends on donor and acceptor labels being close together.
For series [7], the target named is Mast/stem cell growth factor receptor Kit (Homo sapiens) (UniProt P10721). The series is described as follows: Inhibition of human recombinant KIT in presence of ATP by Z-lyte kinase assay. The conditions noted are these: concentration not given here.
Series [8] addresses T1, Glycogen synthase kinase-3 beta. The series is described as follows: Inhibition of human GSK-3beta incubated with substrate in presence of ATP measured by serial dilution assay.
Target sequence in this assay (P49841 whole entry): as the sequence (P49841 whole entry, looked up) above
In series [9] the target is Platelet-derived growth factor receptor beta (Homo sapiens) (UniProt P09619). In words: Inhibition of human recombinant PDGFRB in presence of ATP by Z-lyte kinase assay. The following applies: concentration not given here.
The target in series [10] is Ribosomal protein S6 kinase alpha-2 (Homo sapiens) (UniProt Q15349). The series is described as follows: Inhibition of human recombinant RSK3 in presence of ATP by Z-lyte kinase assay. The following applies: concentration not given here.
Series [11] has as its target MAP kinase-interacting serine/threonine-protein kinase 2 (Homo sapiens) (UniProt Q9HBH9). In words: Inhibition of human recombinant MNK2 by Lanthascreen assay. The following applies: concentration not given here.
Series [12] addresses T1, Glycogen synthase kinase-3 beta. In words: Reversible inhibition of recombinant human GSK-3beta at 10 uM preincubated for 3 hrs followed by diluted with substrate and ATP master mix solution measured first 30 mins by jump dilution assays. The following applies: time 3.5 hrs.
Target sequence in this assay (P49841 whole entry, looked up): as above
For series [13], the target named is AP2-associated protein kinase 1 (Homo sapiens) (UniProt Q2M2I8). The series is described as follows: Inhibition of human recombinant AAK1 by Lanthascreen assay. The following applies: concentration not given here.
Series [14] deals with Glycogen synthase kinase-3 beta (Homo sapiens, UniProt P49841, C199A). The series is described as follows: Inhibition of human GSK-3beta C199A mutant incubated with substrate in presence of ATP measured by serial dilution assay.
The target of series [15] is TGF-beta receptor type-2 (Homo sapiens) (UniProt P37173). The series is described as follows: Inhibition of human recombinant TGFBR2 by Lanthascreen assay. The conditions noted are these: concentration not given here.
The target of series [16] is T1, Glycogen synthase kinase-3 beta. The following applies: dose 200.0 nM.
Target sequence in this assay (P49841 whole entry, looked up): as above
In series [17] the target is Dual specificity mitogen-activated protein kinase kinase 1 (Homo sapiens) (UniProt Q02750). The series is described as follows: Inhibition of human recombinant MAP2K1 in presence of ATP by Z-lyte kinase assay. The conditions noted are these: concentration not given here.
Series [18] concerns the target Ribosomal protein S6 kinase alpha-6 (Homo sapiens) (UniProt Q9UK32). The series is described as follows: Inhibition of human recombinant RSK4 in presence of ATP by Z-lyte kinase assay. The following applies: concentration not given here.
In series [19] the target is Dual specificity mitogen-activated protein kinase kinase 4 (Homo sapiens) (UniProt P45985). In words: Inhibition of human recombinant MAP2K4 by Lanthascreen assay. The conditions noted are these: concentration not given here.
The target in series [20] is Dual specificity mitogen-activated protein kinase kinase 2 (Homo sapiens) (UniProt P36507). The series is described as follows: Inhibition of human recombinant MAP2K2 in presence of 100 uM ATP by Z-lyte kinase assay.
The target in series [21] is Receptor-type tyrosine-protein kinase FLT3 (Homo sapiens) (UniProt P36888). In words: Inhibition of human recombinant FLT3 in presence of ATP by Z-lyte kinase assay. The following applies: concentration not given here.
Series [22] in a line: Thiol reactivity of the compound with ethanethiol DTT by HPLC analysis. It is filed as physicochemical.
The target in series [23] is T1, Glycogen synthase kinase-3 beta. The conditions noted are these: dose 700.0 nM.
Target sequence in this assay (P49841 whole entry, looked up): as above
Description: Reversible inhibition of recombinant human GSK-3beta at 700 nM incubated with substrate and ATP master mix solution by jump dilution assays
The target of series [24] is Mitogen-activated protein kinase 1 (Homo sapiens) (UniProt P28482). In words: Inhibition of human recombinant MAPK1 in presence of ATP by Z-lyte kinase assay. The following applies: concentration not given here.
The target in series [25] is Mitogen-activated protein kinase kinase kinase 20 (Homo sapiens) (UniProt Q9NYL2). In words: Inhibition of human recombinant ZAK by Lanthascreen assay. The following applies: concentration not given here.
Series [26] has as its target T1, Glycogen synthase kinase-3 beta. In words: Reversible inhibition of recombinant human GSK-3beta at 70 uM preincubated for 3 hrs followed by diluted with substrate and ATP master mix solution measured upto 1.5 hrs by jump dilution assays relative to control. The conditions noted are these: time 4.5 hrs.
Target sequence in this assay (P49841 whole entry, looked up): as above
The target in series [27] is Serine/threonine-protein kinase D3 (Homo sapiens) (UniProt O94806). The series is described as follows: Inhibition of human recombinant PKD3 in presence of ATP by Z-lyte kinase assay. The conditions noted are these: concentration not given here.
The target of series [28] is Platelet-derived growth factor receptor alpha (Homo sapiens) (UniProt P16234). In words: Inhibition of human recombinant PDGFRA in presence of ATP by Z-lyte kinase assay. The following applies: concentration not given here.
Series [29] addresses Mitogen-activated protein kinase 15 (Homo sapiens) (UniProt Q8TD08). The series is described as follows: Inhibition of human recombinant MAPK15 by Lanthascreen assay. The conditions noted are these: concentration not given here.
Series [30] concerns the target Cyclin-dependent kinase-like 5 (Homo sapiens) (UniProt O76039). The series is described as follows: Inhibition of human recombinant CDKL5 in presence of ATP by Z-lyte kinase assay. The conditions noted are these: concentration not given here.
Series [31] has as its target Serine/threonine-protein kinase D2 (Homo sapiens) (UniProt Q9BZL6). The series is described as follows: Inhibition of human recombinant PKD2 in presence of ATP by Z-lyte kinase assay. The following applies: concentration not given here.
The target in series [32] is MAP kinase-activated protein kinase 5 (Homo sapiens) (UniProt Q8IW41). In words: Inhibition of human recombinant PRAK in presence of ATP by Z-lyte kinase assay. The following applies: concentration not given here.
For series [33], the target named is Vascular endothelial growth factor receptor 1 (Homo sapiens) (UniProt P17948). In words: Inhibition of human recombinant FLT1 in presence of ATP by Z-lyte kinase assay. The following applies: concentration not given here.
The target of series [34] is Dual specificity mitogen-activated protein kinase kinase 3 (Homo sapiens) (UniProt P46734). In words: Inhibition of human recombinant MAP2K3 by Lanthascreen assay. The following applies: concentration not given here.
The target of series [35] is T1, Glycogen synthase kinase-3 beta. In words: Inhibition of human recombinant GSK3B in presence of ATP by Z-lyte kinase assay. The following applies: concentration not given here.
Series [36] has the same target. In words: Reversible inhibition of recombinant human GSK-3beta at 10 uM preincubated for 3 hrs followed by diluted with substrate and ATP master mix solution measured upto 1.5 hrs by jump dilution assays. The conditions noted are these: time 4.5 hrs, TDE = time-dependent effect.
Series [37] in a line: Thiol reactivity of the compound with tri-butylphosphine by HPLC analysis. Format: physicochemical.
Series [38] deals with MAP kinase-interacting serine/threonine-protein kinase 1 (Homo sapiens) (UniProt Q9BUB5). The series is described as follows: Inhibition of human recombinant MNK1 in presence of ATP by Z-lyte kinase assay. The conditions noted are these: concentration not given here.
Series [39] has as its target Serine/threonine-protein kinase NLK (Homo sapiens) (UniProt Q9UBE8). The series is described as follows: Inhibition of human recombinant NLK by Lanthascreen assay. The following applies: concentration not given here.
The target in series [40] is Dual specificity mitogen-activated protein kinase kinase 1 (Homo sapiens) (UniProt Q02750). In words: Inhibition of human recombinant MAP2K1 by Lanthascreen assay. The conditions noted are these: concentration not given here.
For series [41], the target named is Mitogen-activated protein kinase 3 (Homo sapiens) (UniProt P27361). In words: Inhibition of human recombinant MAPK3 in presence of ATP by Z-lyte kinase assay. The following applies: concentration not given here.
The target of series [42] is Mitogen-activated protein kinase kinase kinase 7 (Homo sapiens) (UniProt O43318). The series is described as follows: Inhibition of human recombinant MAP3K7 by Lanthascreen assay. The following applies: concentration not given here.
The target of series [43] is Dual specificity mitogen-activated protein kinase kinase 5 (Homo sapiens) (UniProt Q13163). In words: Inhibition of human recombinant MAP2K5 by Lanthascreen assay. The following applies: concentration not given here.
Series [44] has as its target Glycogen synthase kinase-3 alpha (Homo sapiens) (UniProt P49840). The series is described as follows: Inhibition of human recombinant GSK3A in presence of ATP by Z-lyte kinase assay. The conditions noted are these: concentration not given here.
Series [45] deals with T1, Glycogen synthase kinase-3 beta. The conditions noted are these: dose 100.0 nM.
The target is the same in series [46]. In words: Inhibition of human GSK-3beta preincubated for 3 hrs followed by ATP and substrate addition measured by serial dilution assay.
Target sequence in this assay (P49841 whole entry): as the sequence (P49841 whole entry, looked up) above
The target of series [47] is Ribosomal protein S6 kinase alpha-3 (Homo sapiens) (UniProt P51812). The series is described as follows: Inhibition of human recombinant RSK2 in presence of ATP by Z-lyte kinase assay. The conditions noted are these: concentration not given here.

The structures appear in SMILES notation. Activity calls are given as the source filed them. The rule behind the calls is not given here.

Sequence of Dual specificity mitogen-activated protein kinase kinase 2 (Homo sapiens) (P36507 whole entry): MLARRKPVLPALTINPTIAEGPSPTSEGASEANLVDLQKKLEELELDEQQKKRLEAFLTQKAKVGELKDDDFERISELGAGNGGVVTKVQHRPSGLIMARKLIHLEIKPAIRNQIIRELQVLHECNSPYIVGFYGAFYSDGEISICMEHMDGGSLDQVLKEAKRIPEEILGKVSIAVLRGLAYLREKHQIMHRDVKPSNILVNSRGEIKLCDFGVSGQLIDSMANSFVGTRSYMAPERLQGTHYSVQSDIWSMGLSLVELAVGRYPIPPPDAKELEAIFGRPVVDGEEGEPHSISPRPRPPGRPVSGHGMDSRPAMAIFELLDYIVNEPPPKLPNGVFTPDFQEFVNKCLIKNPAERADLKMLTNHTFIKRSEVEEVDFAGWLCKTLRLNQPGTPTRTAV
Sequence of Dual specificity mitogen-activated protein kinase kinase 1 (Homo sapiens) (Q02750 whole entry): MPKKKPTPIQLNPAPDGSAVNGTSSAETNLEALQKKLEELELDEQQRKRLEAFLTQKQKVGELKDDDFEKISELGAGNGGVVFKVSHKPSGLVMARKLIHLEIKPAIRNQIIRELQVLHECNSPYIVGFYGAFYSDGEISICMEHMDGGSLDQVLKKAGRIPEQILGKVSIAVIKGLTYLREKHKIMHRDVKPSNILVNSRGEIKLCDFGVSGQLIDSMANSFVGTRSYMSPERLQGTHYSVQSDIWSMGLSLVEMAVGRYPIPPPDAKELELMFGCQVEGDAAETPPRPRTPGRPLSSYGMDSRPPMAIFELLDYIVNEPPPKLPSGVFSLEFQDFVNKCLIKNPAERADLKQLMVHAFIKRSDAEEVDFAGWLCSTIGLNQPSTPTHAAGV
Sequence of Mitogen-activated protein kinase 15 (Homo sapiens) (Q8TD08 whole entry): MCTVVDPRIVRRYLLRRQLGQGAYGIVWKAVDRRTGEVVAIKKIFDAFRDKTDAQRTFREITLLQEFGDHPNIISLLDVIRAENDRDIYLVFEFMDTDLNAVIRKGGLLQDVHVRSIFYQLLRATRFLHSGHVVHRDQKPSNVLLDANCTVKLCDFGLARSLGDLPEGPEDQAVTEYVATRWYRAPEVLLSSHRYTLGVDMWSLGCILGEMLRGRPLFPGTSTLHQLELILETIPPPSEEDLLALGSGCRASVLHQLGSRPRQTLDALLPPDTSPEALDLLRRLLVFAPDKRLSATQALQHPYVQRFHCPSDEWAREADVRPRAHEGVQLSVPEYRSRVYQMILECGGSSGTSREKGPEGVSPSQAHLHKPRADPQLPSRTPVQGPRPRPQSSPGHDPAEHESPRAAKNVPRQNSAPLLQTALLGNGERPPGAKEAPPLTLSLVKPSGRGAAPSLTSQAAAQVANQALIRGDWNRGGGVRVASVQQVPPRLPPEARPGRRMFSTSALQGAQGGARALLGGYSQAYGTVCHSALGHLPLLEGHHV
Sequence of Mitogen-activated protein kinase 1 (Homo sapiens) (P28482 whole entry): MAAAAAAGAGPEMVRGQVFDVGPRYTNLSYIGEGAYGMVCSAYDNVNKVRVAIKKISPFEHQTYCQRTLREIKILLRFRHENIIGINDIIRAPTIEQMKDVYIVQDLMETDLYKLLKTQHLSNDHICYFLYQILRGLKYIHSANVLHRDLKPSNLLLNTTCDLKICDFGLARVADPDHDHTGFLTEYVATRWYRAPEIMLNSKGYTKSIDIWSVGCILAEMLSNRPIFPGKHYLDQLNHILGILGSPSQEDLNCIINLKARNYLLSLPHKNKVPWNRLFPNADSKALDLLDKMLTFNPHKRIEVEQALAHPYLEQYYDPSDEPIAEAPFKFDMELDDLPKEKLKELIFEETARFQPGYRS
Sequence of Glycogen synthase kinase-3 alpha (Homo sapiens) (P49840 2-483 limits assumed): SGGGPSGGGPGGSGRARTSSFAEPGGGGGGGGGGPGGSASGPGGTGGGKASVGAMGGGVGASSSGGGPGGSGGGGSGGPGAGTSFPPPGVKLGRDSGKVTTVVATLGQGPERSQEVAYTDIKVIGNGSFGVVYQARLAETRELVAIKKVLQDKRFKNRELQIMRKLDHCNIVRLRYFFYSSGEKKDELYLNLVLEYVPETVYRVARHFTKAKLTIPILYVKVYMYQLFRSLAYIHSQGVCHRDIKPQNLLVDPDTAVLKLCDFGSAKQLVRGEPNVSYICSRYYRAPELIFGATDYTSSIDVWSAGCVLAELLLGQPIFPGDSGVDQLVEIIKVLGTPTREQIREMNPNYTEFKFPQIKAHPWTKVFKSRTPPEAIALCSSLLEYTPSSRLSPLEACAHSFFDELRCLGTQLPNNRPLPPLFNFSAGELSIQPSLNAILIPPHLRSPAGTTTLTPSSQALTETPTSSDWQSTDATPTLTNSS
Sequence of MAP kinase-interacting serine/threonine-protein kinase 2 (Homo sapiens) (Q9HBH9 whole entry, looked up): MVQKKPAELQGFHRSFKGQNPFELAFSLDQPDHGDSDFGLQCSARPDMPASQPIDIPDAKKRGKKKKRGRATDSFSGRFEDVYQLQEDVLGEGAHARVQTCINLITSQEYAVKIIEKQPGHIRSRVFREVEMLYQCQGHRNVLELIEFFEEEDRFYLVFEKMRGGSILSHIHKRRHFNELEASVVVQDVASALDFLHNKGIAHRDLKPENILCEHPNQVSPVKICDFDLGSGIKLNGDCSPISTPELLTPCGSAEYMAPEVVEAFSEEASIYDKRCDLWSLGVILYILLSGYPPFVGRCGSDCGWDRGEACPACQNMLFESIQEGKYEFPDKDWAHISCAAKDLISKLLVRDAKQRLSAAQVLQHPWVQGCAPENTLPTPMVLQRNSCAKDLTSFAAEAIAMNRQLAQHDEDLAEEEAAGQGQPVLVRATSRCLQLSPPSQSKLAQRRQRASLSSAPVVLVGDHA
Sequence of Ribosomal protein S6 kinase alpha-3 (Homo sapiens) (P51812 whole entry): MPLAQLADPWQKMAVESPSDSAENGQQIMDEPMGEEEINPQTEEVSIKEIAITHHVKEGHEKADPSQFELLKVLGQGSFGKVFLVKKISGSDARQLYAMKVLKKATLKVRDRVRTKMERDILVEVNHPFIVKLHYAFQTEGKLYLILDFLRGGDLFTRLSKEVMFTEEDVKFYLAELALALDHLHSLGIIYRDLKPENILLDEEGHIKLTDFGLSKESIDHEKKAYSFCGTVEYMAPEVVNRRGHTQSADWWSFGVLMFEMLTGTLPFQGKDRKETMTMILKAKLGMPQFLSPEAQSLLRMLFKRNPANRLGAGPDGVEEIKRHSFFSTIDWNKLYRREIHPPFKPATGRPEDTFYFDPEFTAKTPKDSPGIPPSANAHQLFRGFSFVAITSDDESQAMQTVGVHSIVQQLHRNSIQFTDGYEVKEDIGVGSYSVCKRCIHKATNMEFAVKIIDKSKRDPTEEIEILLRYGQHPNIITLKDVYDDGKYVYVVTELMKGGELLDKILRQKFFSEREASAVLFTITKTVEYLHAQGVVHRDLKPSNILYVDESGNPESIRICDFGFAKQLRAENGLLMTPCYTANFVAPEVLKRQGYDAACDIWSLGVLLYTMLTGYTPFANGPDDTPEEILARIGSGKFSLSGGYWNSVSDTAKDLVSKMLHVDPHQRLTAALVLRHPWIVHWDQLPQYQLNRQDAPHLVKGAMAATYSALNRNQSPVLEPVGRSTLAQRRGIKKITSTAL
Sequence of Dual specificity mitogen-activated protein kinase kinase 5 (Homo sapiens) (Q13163 whole entry): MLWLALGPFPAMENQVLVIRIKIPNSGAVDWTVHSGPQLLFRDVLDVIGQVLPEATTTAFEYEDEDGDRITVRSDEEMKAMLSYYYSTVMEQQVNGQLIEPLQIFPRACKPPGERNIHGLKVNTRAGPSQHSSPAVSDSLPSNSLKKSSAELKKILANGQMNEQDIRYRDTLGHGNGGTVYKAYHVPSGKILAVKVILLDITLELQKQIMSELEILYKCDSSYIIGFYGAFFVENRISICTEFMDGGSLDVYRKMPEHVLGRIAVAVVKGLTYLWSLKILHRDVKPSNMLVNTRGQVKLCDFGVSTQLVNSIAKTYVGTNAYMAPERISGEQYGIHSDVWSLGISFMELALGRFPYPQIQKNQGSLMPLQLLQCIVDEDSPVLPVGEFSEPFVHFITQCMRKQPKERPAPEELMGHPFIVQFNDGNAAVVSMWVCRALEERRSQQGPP

Broadly, the inhibition is the drop in the measured response relative to a control, in per cent. With `O=C1Cc2c([nH]c3ccc([N+](=O)[O-])cc23)-c2ccccc2N1`, the inhibition entry in series [1] is “Active”.
As a reminder, the IC50 is the midpoint of a concentration-inhibition curve. In the case of `OC1(c2ccccc2)CSC(=S)N1Cc1ccncc1` (configuration not stated), the inhibition in series [2] was 24%; in series [3], 1.9%; in [4], 6%; in series [5], “Tde”; in series [6], 4%; in series [7] it was 4%. The inhibition in series [9] is -2%; in [10], 9%; in [11], 1%; in series [13], 11%; in series [15] it was 20%; in [17], 6%. Also, the inhibition came to 18% in series [18]; 12% in series [19]; 7% in series [20]; 2% in series [21]; 29% in series [24]; 9% in series [25]. In addition, the inhibition was 10% in series [27]; -2% in series [28]; 26% in series [29]; 3.2% in series [30]; 11% in series [31]; 60% in series [32]. Besides, the inhibition was 0% in series [33]; 7% in series [34]; 89% in series [35]; “Tde” in [36]; -2% in series [38]; 24% in series [39]. Further, the inhibition in [40] worked out at 5%; in series [41], 26%; in series [42], 21%; in series [43] it was 1%; in [44], 91%; in series [47], 11%. Further, the values for the IC50 in series [8], in series [14] and in [46] were 370 nM, 121000 nM and 102 nM, respectively. Besides, the inhibition result in [12] and in [26] was “Active” throughout. Moreover, the inhibition result in series [16], in series [23] and in [45] was “inactive” in each case. The Drug metabolism result in series [22] and in series [37] was “Metabolite_Notdetected” in each case.
Consider `COc1cc(O)c2c(c1)[C@H]1O[C@@H]1C[C@H](O)[C@H](O)C(=O)/C=C\C[C@H](C)OC2=O` [HYPOTHEMYCIN], for which the results for the IC50 in series [8] and in series [46] were 11300 nM and 663 nM, respectively. The inhibition entry in series [16], in [23] and in [45] was “inactive” in each case.

Values taken from ChEMBL document CHEMBL4819140, “A novel GSK-3 inhibitor binds to GSK-3β via a reversible, time and Cys-199-dependent mechanism” (Bioorg Med Chem, 2021).
